Columns and labels:
ΔF508-CFTR [1] = target: T1, ΔF508-CFTR (Homo sapiens, UniProt P13569, DEL508-508); assay: CFTR cell surface levels using HRP-tagged ΔF508-CFTR expressing CFBE cells, intrinsic corrector capacity; assay type: cell-based; set-up: % Activation: concentration or dose not given beside the values; details: HRP-tagged ΔF508-CFTR expressing CFBE41o- cells, compound alone (intrinsic corrector capacity), 20 hours at 33° C.; for EC50: read-out: EC50
T1 construct: host or cells: CFBE41o-, doxycycline-inducible
In short: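 Surface ΔF508-CFTR was measured as HRP chemiluminescence from an extracellular-loop-4 tag, expressed as percent activity between DMSO and a […] corrector control.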

ΔF508-CFTR [2] = target: T1, ΔF508-CFTR; assay: CFTR cell surface levels using HRP-tagged ΔF508-CFTR expressing CFBE cells, in the presence of a co-corrector; assay type: cell-based; details: HRP-tagged ΔF508-CFTR CFBE cells, in the presence of 3 μM co-corrector; for EC50: read-out: EC50
In short: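 Chemiluminescent read-out of surface HRP (15 min, dark) after PBS washes. Activity is normalized as 100×(sample−DMSO)/(3 μM co-corrector alone−DMSO).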

T1 sequence (P13569 with tags, fused parts or gaps DEL508-508): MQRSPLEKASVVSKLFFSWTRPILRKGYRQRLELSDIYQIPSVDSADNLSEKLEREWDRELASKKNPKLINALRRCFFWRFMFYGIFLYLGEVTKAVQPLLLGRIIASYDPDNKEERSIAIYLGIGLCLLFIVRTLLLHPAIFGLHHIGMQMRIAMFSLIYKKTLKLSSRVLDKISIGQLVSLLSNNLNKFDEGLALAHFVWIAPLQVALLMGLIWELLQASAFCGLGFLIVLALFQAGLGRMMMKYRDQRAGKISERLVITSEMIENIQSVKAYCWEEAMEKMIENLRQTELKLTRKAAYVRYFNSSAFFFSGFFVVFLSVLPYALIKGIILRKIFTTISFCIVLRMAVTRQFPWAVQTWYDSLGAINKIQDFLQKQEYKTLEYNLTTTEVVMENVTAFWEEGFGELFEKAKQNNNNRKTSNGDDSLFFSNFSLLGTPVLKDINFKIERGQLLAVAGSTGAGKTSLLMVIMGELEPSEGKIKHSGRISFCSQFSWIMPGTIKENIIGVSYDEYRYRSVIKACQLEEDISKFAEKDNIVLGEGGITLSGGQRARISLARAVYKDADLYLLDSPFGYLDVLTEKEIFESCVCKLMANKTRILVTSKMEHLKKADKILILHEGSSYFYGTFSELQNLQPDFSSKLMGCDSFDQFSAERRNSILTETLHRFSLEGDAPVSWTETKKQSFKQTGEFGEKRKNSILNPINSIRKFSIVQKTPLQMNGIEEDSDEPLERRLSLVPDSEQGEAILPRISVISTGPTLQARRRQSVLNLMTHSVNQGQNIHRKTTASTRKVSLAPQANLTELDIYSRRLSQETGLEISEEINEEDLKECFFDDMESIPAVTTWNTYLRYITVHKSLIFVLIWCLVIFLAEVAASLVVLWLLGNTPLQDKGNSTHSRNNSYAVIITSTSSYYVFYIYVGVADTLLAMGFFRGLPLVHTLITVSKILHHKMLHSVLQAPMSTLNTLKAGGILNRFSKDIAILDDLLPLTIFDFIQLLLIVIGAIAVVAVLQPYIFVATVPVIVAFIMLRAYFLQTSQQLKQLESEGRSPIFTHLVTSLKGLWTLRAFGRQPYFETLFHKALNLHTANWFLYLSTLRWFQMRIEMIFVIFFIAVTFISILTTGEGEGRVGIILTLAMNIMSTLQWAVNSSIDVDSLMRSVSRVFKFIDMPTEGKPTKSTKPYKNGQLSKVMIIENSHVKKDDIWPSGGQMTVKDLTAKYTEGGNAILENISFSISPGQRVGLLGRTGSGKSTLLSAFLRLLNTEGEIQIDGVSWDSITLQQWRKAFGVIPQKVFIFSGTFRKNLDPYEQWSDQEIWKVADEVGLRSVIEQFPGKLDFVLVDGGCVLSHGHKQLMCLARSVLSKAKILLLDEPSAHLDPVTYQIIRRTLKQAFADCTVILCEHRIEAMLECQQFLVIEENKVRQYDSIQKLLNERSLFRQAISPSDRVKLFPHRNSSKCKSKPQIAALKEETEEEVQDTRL

SMILES | % Activation (ΔF508-CFTR [1]) [%] | EC50 (ΔF508-CFTR [1]) [nM] | % Activation (ΔF508-CFTR [2]) [%] | EC50 (ΔF508-CFTR [2]) [nM]
COCCN(C)c1ccc(-c2cc(C(=O)NS(C)(=O)=O)nc3c2c(C(C)C)nn3-c2cccc(N(C)C)c2)cc1 [Compound 82, 1-[3-(dimethylamino)phenyl]-N-(methanesulfonyl)-4-{4-[(2-methoxyethyl)(methyl)amino]phenyl}-3-(propan-2-yl)-1H-pyrazolo[3,4-b]pyridine-6-carboxamide] | 366.27 | 472 | 535.93 | 383
CC(C)c1nn(-c2cccc(N(C)C)c2)c2nc(C(=O)NS(C)(=O)=O)cc(OCC3CCOCC3)c12 [Compound 278, 1-[3-(dimethylamino)phenyl]-N-(methanesulfonyl)-4-[(oxan-4-yl)methoxy]-3-(propan-2-yl)-1H-pyrazolo[3,4-b]pyridine-6-carboxamide] | 233.7 | 120 | 388.5 | 88.3
CS(=O)(=O)NC(=O)c1cc(N2CCC(N3CCCC(F)C3)CC2)c2c(C3CCC3)nn(-c3ccc(F)cc3)c2n1 (stereo not drawn) [Compound 567, 3-cyclobutyl-4-(3-fluoro[1,4'-bipiperidin]-1'-yl)-1-(4-fluorophenyl)-N-(methanesulfonyl)-1H-pyrazolo[3,4-b]pyridine-6-carboxamide] | 312.2 | 139 | 539.8 | 56.3
COCC1CCN(c2cc(C(=O)NS(C)(=O)=O)nc3c2c(C(C)C)nn3CC2CCC2)CC1 [Compound 262, 1-(cyclobutylmethyl)-N-(methanesulfonyl)-4-[4-(methoxymethyl)piperidin-1-yl]-3-(propan-2-yl)-1H-pyrazolo[3,4-b]pyridine-6-carboxamide] | 232.07 | 598 | 420.17 | 523
COCC1CCN(c2cc(C(=O)NS(=O)(=O)CCCO)nc3c2c(C2CCC2)nn3-c2ccccc2)CC1 [Compound 367, 3-cyclobutyl-N-(3-hydroxypropane-1-sulfonyl)-4-[4-(methoxymethyl)piperidin-1-yl]-1-phenyl-1H-pyrazolo[3,4-b]pyridine-6-carboxamide] | 364.5 | 311 | 526.17 | 81.6
CC(C)Oc1nn(C2CCCCC2)c2nc(C(=O)NS(C)(=O)=O)cc(-c3ccc(C(=O)N4CC5CNCC5C4)cc3)c12 (stereo not drawn) [Compound 631, 1-cyclohexyl-4-[4-(hexahydropyrrolo[3,4-c]pyrrole-2(1H)-carbonyl)phenyl]-N-(methanesulfonyl)-3-[(propan-2-yl)oxy]-1H-pyrazolo[3,4-b]pyridine-6-carboxamide] | 122.53 | 3340 | 352.63 | 2990
CC(C)Oc1nn(C2CCCCC2)c2nc(C(=O)NS(=O)(=O)N(C)C)cc(-c3ccc(CN4CCN(C)CC4)cc3)c12 [Compound 442, 1-cyclohexyl-N-(dimethylsulfamoyl)-4-{4-[(4-methylpiperazin-1-yl)methyl]phenyl}-3-[(propan-2-yl)oxy]-1H-pyrazolo[3,4-b]pyridine-6-carboxamide] | 146.8 | 307 | 342 | 1110
COC1CCN(c2cc(C(=O)NS(=O)(=O)C3CCN(C(=O)OCc4ccccc4)CC3)nc3c2c(C2CCC2)nn3-c2ccccc2)CC1 [Compound 208, benzyl 4-{[3-cyclobutyl-4-(4-methoxypiperidin-1-yl)-1-phenyl-1H-pyrazolo[3,4-b]pyridine-6-carbonyl]sulfamoyl}piperidine-1-carboxylate] | 190.55 | 402 | 419.15 | 364
COCCN(C)c1cc(C(=O)NS(C)(=O)=O)nc2c1c(C1CCC1)nn2-c1ccccc1 [Compound 206, 3-cyclobutyl-N-(methanesulfonyl)-4-[(2-methoxyethyl)(methyl)amino]-1-phenyl-1H-pyrazolo[3,4-b]pyridine-6-carboxamide] | 169.03 | 1400 | 387.03 | 890
CC(C)c1nn(-c2ccc(F)cc2)c2nc(C(=O)NS(C)(=O)=O)cc(-c3cnc(N(C)C4CCOCC4)nc3)c12 [Compound 134, 1-(4-fluorophenyl)-N-(methanesulfonyl)-4-{2-[methyl(oxan-4-yl)amino]pyrimidin-5-yl}-3-(propan-2-yl)-1H-pyrazolo[3,4-b]pyridine-6-carboxamide] | 229.87 | 465 | 435.8 | 237
CN(C)S(=O)(=O)NC(=O)c1cc(N2CCC(N3CC4CC3CO4)CC2)c2c(C3CCC3)nn(-c3ccc(F)cc3)c2n1 (stereo not drawn) [Compound 532, 3-cyclobutyl-N-(dimethylsulfamoyl)-1-(4-fluorophenyl)-4-[4-(2-oxa-5-azabicyclo[2.2.1]heptan-5-yl)piperidin-1-yl]-1H-pyrazolo[3,4-b]pyridine-6-carboxamide] | 151.95 | 521 | 342.83 | 473
Cc1nn(-c2cc(F)cc(F)c2)c2nc(C(=O)NS(C)(=O)=O)cc(-c3ccc(N4CCOCC4)cc3)c12 [Compound 23, 1-(3,5-difluorophenyl)-N-(methanesulfonyl)-3-methyl-4-[4-(morpholin-4-yl)phenyl]-1H-pyrazolo[3,4-b]pyridine-6-carboxamide] | 287.3 | 883 | 468.85 | 573
CN(C)S(=O)(=O)NC(=O)c1cc(C2CCN(CC3CCOCC3)CC2)c2c(C3CCC3)nn(-c3ccc(F)cc3)c2n1 [Compound 601, 3-cyclobutyl-N-(dimethylsulfamoyl)-1-(4-fluorophenyl)-4-{1-[(oxan-4-yl)methyl]piperidin-4-yl}-1H-pyrazolo[3,4-b]pyridine-6-carboxamide] | 112 | 2180 | 273.9 | 625
Cc1nn(-c2cccc(Cl)c2)c2nc(C(=O)NS(C)(=O)=O)cc(-c3ccc(N4CCOCC4)cc3)c12 [Compound 65, 1-(3-chlorophenyl)-N-(methanesulfonyl)-3-methyl-4-[4-(morpholin-4-yl)phenyl]-1H-pyrazolo[3,4-b]pyridine-6-carboxamide] | 162.33 | 1530 | 332.05 | 464
CC(C)c1nn(C2CCCCC2)c2nc(C(=O)NS(C)(=O)=O)cc(-c3ccc(N4CCCC(F)C4)nc3)c12 (stereo not drawn) [Compound 108, 1-cyclohexyl-4-[6-(3-fluoropiperidin-1-yl)pyridin-3-yl]-N-(methanesulfonyl)-3-(propan-2-yl)-1H-pyrazolo[3,4-b]pyridine-6-carboxamide] | 218.05 | 561 | 428.3 | 509
CS(=O)(=O)NC(=O)c1cc(N2CCN(CC(F)(F)F)CC2)c2c(C3CCC3)nn(-c3ccccc3)c2n1 [Compound 329, 3-cyclobutyl-N-(methanesulfonyl)-1-phenyl-4-[4-(2,2,2-trifluoroethyl)piperazin-1-yl]-1H-pyrazolo[3,4-b]pyridine-6-carboxamide] | 163.85 | 158 | 318.4 | 777
COCCS(=O)(=O)NC(=O)c1cc(N2CCC(N3CCOCC3)CC2)c2c(C3CCC3)nn(C3CCCCC3)c2n1 [Compound 419, 3-cyclobutyl-1-cyclohexyl-N-(2-methoxyethanesulfonyl)-4-[4-(morpholin-4-yl)piperidin-1-yl]-1H-pyrazolo[3,4-b]pyridine-6-carboxamide] | 293 | 448 | 505.65 | 277
COc1ccc(-c2cc(C(=O)NS(C)(=O)=O)nc3c2c(C)nn3-c2cccc(C)c2)cc1 [Compound 27, N-(methanesulfonyl)-4-(4-methoxyphenyl)-3-methyl-1-(3-methylphenyl)-1H-pyrazolo[3,4-b]pyridine-6-carboxamide] | 145.5 | 1220 | 365.2 | 714
CC(C)c1nn(-c2ccc(F)cc2)c2nc(C(=O)NS(C)(=O)=O)cc(N3CCN(CC(F)(F)F)CC3)c12 [Compound 266, 1-(4-fluorophenyl)-N-(methanesulfonyl)-3-(propan-2-yl)-4-[4-(2,2,2-trifluoroethyl)piperazin-1-yl]-1H-pyrazolo[3,4-b]pyridine-6-carboxamide] | 161.5 | 332 | 328.87 | 231
CC(C)Oc1nn(C2CCCCC2)c2nc(C(=O)NS(C)(=O)=O)cc(-c3ccc(C(=O)N4CC5CN(C)CC5C4)cc3)c12 (stereo not drawn) [Compound 637, 1-cyclohexyl-N-(methanesulfonyl)-4-[4-(5-methylhexahydropyrrolo[3,4-c]pyrrole-2(1H)-carbonyl)phenyl]-3-[(propan-2-yl)oxy]-1H-pyrazolo[3,4-b]pyridine-6-carboxamide] | 191.88 | 2500 | 413.4 | 971
CC(C)c1nn(-c2cccc(N3CCOCC3)c2)c2nc(C(=O)NS(C)(=O)=O)cc(-c3cnc(N(C)C)nc3)c12 [Compound 29, 4-[2-(dimethylamino)pyrimidin-5-yl]-N-(methanesulfonyl)-1-[3-(morpholin-4-yl)phenyl]-3-(propan-2-yl)-1H-pyrazolo[3,4-b]pyridine-6-carboxamide] | 328.4 | 645 | 591.4 | 824
